In patent US8754115B2, “Fungicidal pyrazoles” (E I du Pont de Nemours and Company, priority 2010, dated 2014):
Marks after values point to notes of the source that are not given here.

Tests used:
Assay type in all cases: in vivo
Botrytis cinerea = assay: Test A: preventive spray on tomato seedlings, visual disease rating (tomato Botrytis)
How it was run: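 Preventive test: Botrytis cinerea spores applied one day after run-off spraying at 200 ppm (≈800 g/ha), or 40 ppm where asterisked. Incubation 48 h at 20 °C in saturated air, then 3 days at 24 °C; disease scored visually from 0 (no control) to 100 (complete control) versus untreated.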

Alternaria solani = assay: Test B: preventive spray on tomato seedlings, visual disease rating (tomato early blight)
How it was run: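 Compounds were suspended at 200 ppm (asterisked values at 40 ppm) in acetone/water with surfactant and sprayed to run-off on tomato seedlings, 200 ppm being equivalent to 800 g/ha. A. solani spores were inoculated the next day, with 48 h at 27 °C in saturated air, then 5 days at 20 °C. Disease control was rated visually, 0–100% relative to controls.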

Septoria nodorum = assay: Test C: preventive spray on wheat seedlings, visual disease rating (Septoria glume blotch)
How it was run: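 Wheat seedlings were sprayed to run-off with 200 ppm suspension (40 ppm where marked; 200 ppm ≈ 800 g/ha) in acetone/water with 250 ppm Trem 014, then inoculated next day with Septoria nodorum spores. Incubation was 48 h saturated at 24 °C, then 6 days at 20 °C; visual rating 0–100% disease control versus controls.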

Septoria tritici = assay: Test D: preventive spray on wheat seedlings, visual disease rating (wheat leaf blotch)
How it was run: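 Protection was scored visually on a 0–100% disease-control scale versus controls, 19 days after plants were moved to 20 °C following 48 h of 24 °C saturated humidity. Spore inoculation with S. tritici took place one day after a preventive run-off spray, usually at 200 ppm (800 g/ha) and at 40 ppm where asterisked.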

[1] = system: Puccinia recondite f. sp. tritici; assay: Test E1: curative spray on wheat seedlings after inoculation, visual disease rating (wheat leaf rust)
How it was run: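 Seedlings inoculated with rust spores, held 24 h in saturated atmosphere at 20 °C, then 2 days at 20 °C before curative spray to run-off with test suspension (200 ppm ≈ 800 g/ha, or 40 ppm where marked) in acetone/water with surfactant. Visual disease control rating (0–100) after 6 further days at 20 °C.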

[2] = system: Puccinia recondite f. sp. tritici; assay: Test E2: preventive spray on wheat seedlings, visual disease rating (wheat leaf rust)
How it was run: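 Wheat seedlings were inoculated with leaf rust spores one day after a run-off spray of compound at 200 ppm (asterisk: 40 ppm) in 50/50 acetone/water with 250 ppm Trem 014. Incubation: 24 h saturated humidity, 20 °C; then 7 days growth chamber, 20 °C. Disease control scored visually, 0–100% relative to controls.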

[3] = system: Blumeria graminis f. sp. tritici; assay: Test F: preventive spray on wheat seedlings, visual disease rating (wheat powdery mildew)
How it was run: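 Visual ratings (0–100% control relative to controls) taken 8 days after spore-dust inoculation at 20° C. Inoculation followed one day after a protective run-off spray of 200 ppm suspension, equal to 800 g/ha, or 40 ppm where flagged, made in acetone/water with 250 ppm surfactant.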

[4] = no asterisk: standard test suspension, not 40 ppm, 100 = 100% disease control, 0 = none
[5] = no asterisk: standard test suspension, not 40 ppm
[6] = asterisk: 40 ppm test suspension

| Molecule | Test A rating (% disease control) (Botrytis cinerea; [4]) [%] | Test B rating (% disease control) (Alternaria solani; [5]) [%] | Test C rating (% disease control) (Septoria nodorum; [5]) [%] | Test D rating (% disease control) (Septoria tritici; [5]) [%] | Test E1 rating (% disease control) [1, 5] [%] | Test E2 rating (% disease control) [2, 5] [%] | Test F rating (% disease control) [3, 5] [%] | Test A rating (% disease control) (Botrytis cinerea; [6]) | Test B rating (% disease control) (Alternaria solani; [6]) | Test C rating (% disease control) (Septoria nodorum; [6]) | Test D rating (% disease control) (Septoria tritici; [6]) | Test E1 rating (% disease control) [1, 6] | Test E2 rating (% disease control) [2, 6] | Test F rating (% disease control) [3, 6] |
| --- | --- | --- | --- | --- | --- | --- | --- | --- | --- | --- | --- | --- | --- | --- |
| COc1cc(F)c(C(O)c2c(C)nn(C)c2-c2c(F)cccc2Cl)c(F)c1 (stereo not shown) [compound 39] | 95 | 58 | 60 | 100 | 97 | 100 | 99 | – | – | – | – | – | – | – |
| Cc1nn(C)c(-c2ccc(F)cc2Br)c1C(=O)c1ccc(F)cc1Cl [compound 83] | – | – | – | – | – | – | – | 55* % | 0* % | 0* % | 25* % | 0* % | 74* % | 99* % |
| 4-[[5-(2-chloro-4-fluorophenyl)-1,3-dimethyl-1H-pyrazol-4-yl]amino]-3,5-difluorobenzonitrile [Compound 40] | 100 | 0 | 0 | 0 | 38 | 68 | 91 | – | – | – | – | – | – | – |
| 4-(2-chloro-4-fluorophenoxy)-5-(2,4-difluorophenyl)-1,3-dimethyl-1H-pyrazole [Compound 5] | 100 | 100 | 100 | 100 | 99 | 100 | 100 | – | – | – | – | – | – | – |
| 4-[(2-chloro-4-fluorophenyl)hydroxymethyl]-5-(2,6-difluorophenyl)-1-methyl-1H-pyrazole-3-carbonitrile [Compound 53] | 100 | 0 | 0 | 95 | 91 | 97 | 96 | – | – | – | – | – | – | – |
| Cc1nn(C)c(-c2c(F)cccc2F)c1C(=O)c1ccc(F)cc1F [compound 24] | 9 | 0 | 0 | 0 | 9 | 79 | 96 | – | – | – | – | – | – | – |
| Cc1nn(C)c(-c2ccc(F)cc2Cl)c1C(O)c1ccc(F)cc1Br (stereo not shown) [compound 23] | 100 | 67 | 87 | 100 | 98 | 100 | 84 | – | – | – | – | – | – | – |
| Cc1nn(C)c(-c2c(F)cccc2Cl)c1C(O)c1c(Cl)cccc1Cl (stereo not shown) [compound 85] | 97 | 84 | 0 | 100 | 9 | 100 | 50 | – | – | – | – | – | – | – |
| Cc1nn(C)c(-c2ccccc2Br)c1C(O)c1ccc(F)cc1Cl (single isomer, unassigned) [compound 79] | 98 | 0 | 0 | 100 | 53 | 100 | 99 | – | – | – | – | – | – | – |
| Cc1nn(C)c(-c2c(F)cccc2F)c1Nc1ccc(F)cc1Cl [compound 50] | 99 | 93 | 0 | 100 | 0 | 79 | 98 | – | – | – | – | – | – | – |
